In patent publication US20250388605A1, “HETEROBIFUNCTIONAL COMPOUNDS AND METHODS OF TREATING DISEASE” (Halda Therapeutics OpCo, Inc., priority 2022, published 2025):

Experiments:
[1] = tested on: T-Rex 293 cell line SC cells having increased expression of progesterone receptor isoform B protein; experiment: Cellular growth inhibition assay, T-Rex 293 SC cells exposed to doxycycline (increased progesterone receptor isoform B expression), CellTiter-Glo; type: cell-based; conditions: T-Rex 293 SC cells with 10 ng/mL doxycycline (increased PR isoform B), 72 hours
[2] = tested on: T-Rex 293 cell line SC cells lacking increased expression of progesterone receptor isoform B protein; experiment: Cellular growth inhibition assay, T-Rex 293 SC cells not exposed to doxycycline (no increased progesterone receptor isoform B expression), CellTiter-Glo; type: cell-based; conditions: T-Rex 293 SC cells without doxycycline (no increased PR isoform B), 72 hours
[3] = biological target: T1, progesterone receptor ligand binding domain (GST-tagged PR LBD) (Homo sapiens, UniProt P06401); experiment: FP Assay for Binding Affinity to Progesterone Receptor (PolarScreen Progesterone Receptor Competitor Assay Kit); conditions: fluorescence polarization, Fluormone tracer, 2 hours at room temperature
T1 construct: purchased Life Technologies A15905 or a15906
T1 sequence (P06401 679-913 limits assumed): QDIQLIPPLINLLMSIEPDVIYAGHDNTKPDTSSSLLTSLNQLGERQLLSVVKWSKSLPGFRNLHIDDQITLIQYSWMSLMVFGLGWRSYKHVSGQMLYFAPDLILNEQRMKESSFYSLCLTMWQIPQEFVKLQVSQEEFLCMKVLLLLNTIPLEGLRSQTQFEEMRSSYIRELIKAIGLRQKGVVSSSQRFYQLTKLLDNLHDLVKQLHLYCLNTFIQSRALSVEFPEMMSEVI
Procedure, shortened: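 Fluorescence polarization competition: GST-tagged human PR LBD, Fluormone tracer and compound incubated 2 h at room temperature in the dark. mP plotted against compound concentration; IC50 from four-parameter non-linear fit.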

Row | SMILES | GI50 [1] | GI50 [2] | IC50 [3]
1 | Cn1cc(-c2cc(C(C)(C)O)ccc2Oc2ccc(OCC3CCN(c4ncc(C(=O)N[C@H]5C(C)(C)[C@H](Oc6ccc(C#N)c(Cl)c6)C5(C)C)cn4)CC3)cc2)c2cc[nH]c2c1=O [Compound I-202] | < 500 nM | 500 to 1500 nM | > 2500 nM
2 | Cn1cc(-c2cc(C(C)(C)O)ccc2Oc2ccc(N3CC(OC4CCN(c5ncc(C(=O)N[C@H]6C(C)(C)[C@H](Oc7ccc(C#N)c(Cl)c7)C6(C)C)cn5)CC4)C3)cc2)c2cc[nH]c2c1=O [Compound I-219] | < 500 nM | > 3000 nM | 50 to 500 nM
3 | CCS(=O)(=O)Nc1ccc(Oc2cccc(N3CC4(CN(CC5CCN(c6ncc(C(=O)N[C@H]7C(C)(C)[C@H](Oc8ccc(C#N)c(Cl)c8)C7(C)C)cn6)CC5)C4)C3)c2)c(-c2cn(C)c(=O)c3[nH]ccc23)c1 [Compound I-35, N-((1r, 3r)-3-(3-chloro-4-cyanophenoxy)-2,2,4,4-tetramethylcyclobutyl)-2-(4-((6-(3-(4-(ethylsulfonamido)-2-(6-methyl-7-oxo-6,7-dihydro-1H-pyrrolo[2,3-c]pyridin-4-yl)phenoxy)phenyl)-2,6-diazaspiro[3.3]heptan-2-yl)methyl)piperidin-1-yl)pyrimidine-5-carboxamide] | < 500 nM | > 3000 nM | 500 to 2500 nM
4 | Cn1cc(-c2cc(C(C)(C)O)ccc2Oc2ccc(CCCC3CC4(C3)CN(c3ncc(C(=O)N[C@H]5C(C)(C)[C@H](Oc6ccc(C#N)c(Cl)c6)C5(C)C)cn3)C4)cc2)c2cc[nH]c2c1=O [Compound I-268] | < 500 nM | < 500 nM | 50 to 500 nM
5 | Cn1cc(-c2cc(C(C)(C)O)ccc2Oc2ccc(N3CC(CN4CC5CC4CN5c4ncc(C(=O)N[C@H]5C(C)(C)[C@H](Oc6ccc(C#N)c(Cl)c6)C5(C)C)cn4)C3)cc2)c2cc[nH]c2c1=O (stereo partly drawn) [Compound I-228] | < 500 nM | < 500 nM | 50 to 500 nM
6 | CCS(=O)(=O)Nc1ccc(Oc2ccc(OCC3CCN(c4ncc(C(=O)N[C@H]5C(C)(C)[C@H](Oc6ccc(C#N)c(Cl)c6)C5(C)C)cn4)CC3)cc2)c(-c2cn(C)c(=O)c3[nH]ccc23)c1 [Compound I-138] | < 500 nM | < 500 nM | > 2500 nM
7 | Cn1cc(-c2cc(C(C)(C)O)ccc2Oc2ccc(CC3CCN(c4ncc(C(=O)N[C@H]5C(C)(C)[C@H](Oc6ccc(C#N)c(Cl)c6)C5(C)C)cn4)CC3)cc2)c2cc[nH]c2c1=O [Compound I-201] | < 500 nM | 500 to 1500 nM | > 2500 nM
8 | CCS(=O)(=O)Nc1ccc(Oc2cccc(OC3CC(C4CCN(c5ncc(C(=O)N[C@H]6C(C)(C)[C@H](Oc7ccc(C#N)c(Cl)c7)C6(C)C)cn5)CC4)C3)c2)c(-c2cn(C)c(=O)c3[nH]ccc23)c1 (stereo partly drawn) [Compound I-104] | < 500 nM | > 3000 nM | > 2500 nM
9 | CC(C)N(C1CCN(c2ncc(C(=O)N[C@H]3C(C)(C)[C@H](Oc4ccc(C#N)c(Cl)c4)C3(C)C)cn2)CC1)C1CN(c2cccc(Oc3ccc(C(C)(C)O)cc3-c3cn(C)c(=O)c4[nH]ccc34)c2F)C1 [Compound I-221] | < 500 nM | 1500 to 3000 nM | 50 to 500 nM
10 | Cn1cc(-c2cc(C(C)(C)O)ccc2Oc2ccc(CCC3CCN(c4ncc(C(=O)N[C@H]5C(C)(C)[C@H](Oc6ccc(C#N)c(Cl)c6)C5(C)C)cn4)CC3)cc2)c2cc[nH]c2c1=O [Compound I-203] | < 500 nM | > 3000 nM | > 2500 nM
11 | Cn1cc(-c2cc(C(C)(C)O)ccc2Oc2ccc(N3CC(CC4CN(c5ncc(C(=O)N[C@H]6C(C)(C)[C@H](Oc7ccc(C#N)c(Cl)c7)C6(C)C)cn5)C4)C3)cc2)c2cc[nH]c2c1=O [Compound I-280] | < 500 nM | < 500 nM | 50 to 500 nM
12 | CN(C1CCN(c2ncc(C(=O)N[C@H]3C(C)(C)[C@H](Oc4ccc(C#N)c(Cl)c4)C3(C)C)cn2)CC1)C1CN(c2ccc(Oc3ccc(C(C)(C)O)cc3-c3cn(C)c(=O)c4[nH]ccc34)cc2)C1 [Compound I-208] | < 500 nM | < 500 nM | 50 to 500 nM
13 | Cn1cc(-c2cc(C(C)(C)O)ccc2Oc2ccc(OCCN3CCN(c4ncc(C(=O)N[C@H]5C(C)(C)[C@H](Oc6ccc(C#N)c(Cl)c6)C5(C)C)cn4)CC3)cc2)c2cc[nH]c2c1=O [Compound I-204] | < 500 nM | 500 to 1500 nM | 50 to 500 nM
14 | CN(C1CN(c2ccc(Oc3ccc(C(C)(C)O)cc3-c3cn(C)c(=O)c4[nH]ccc34)cc2)C1)C1CN(c2ncc(C(=O)N[C@H]3C(C)(C)[C@H](Oc4ccc(C#N)c(Cl)c4)C3(C)C)cn2)C1 [Compound I-238] | < 500 nM | < 500 nM | 50 to 500 nM
15 | CN(CC1CCN(c2ncc(C(=O)N[C@H]3C(C)(C)[C@H](Oc4ccc(C#N)c(Cl)c4)C3(C)C)cn2)CC1)C1(c2ccc(Oc3ccc(C(C)(C)O)cc3-c3cn(C)c(=O)c4[nH]ccc34)cc2)COC1 [Compound I-255] | < 500 nM | 1500 to 3000 nM | 50 to 500 nM
16 | CCS(=O)(=O)Nc1ccc(Oc2cccc(OC3CCC4(CC3)CCN(c3ncc(C(=O)N[C@H]5C(C)(C)[C@H](Oc6ccc(C#N)c(Cl)c6)C5(C)C)cn3)CC4)c2)c(-c2cn(C)c(=O)c3[nH]ccc23)c1 [Compound I-45] | < 500 nM | > 3000 nM | > 2500 nM
17 | CCS(=O)(=O)c1ccc(Oc2ccc(OCC3CCN(c4ncc5c(n4)CN([C@H]4C(C)(C)[C@H](Cc6ccc(C#N)c(Cl)c6)C4(C)C)C5=O)CC3)cc2)c(-c2cn(C)c(=O)c3[nH]ccc23)c1 [Compound I-220] | < 500 nM | < 500 nM | 50 to 500 nM
18 | Cn1cc(-c2cc(C(C)(C)O)ccc2Oc2ccc(N3CC(CC4CCN(c5ncc(C(=O)N[C@H]6C(C)(C)[C@H](Oc7ccc(C#N)c(Cl)c7)C6(C)C)cn5)CC4)C3)cc2)c2cc[nH]c2c1=O [Compound I-232] | < 500 nM | 500 to 1500 nM | 500 to 2500 nM
